Measured values: article PMC10708527, “Salazinic Acid and Norlobaridone from the Lichen Hypotrachyna cirrhata: Antioxidant Activity, α-Glucosidase Inhibitory and Molecular Docking Studies” (Molecules, 2023)

Target: T1, intestinal α-glucosidase
T1 construct: crude rat intestinal enzyme
Assay: crude enzyme inhibition, p-nitrophenyl-α-D-glucopyranoside hydrolysis at […] nm
Format: biochemical, Rattus norvegicus

SMILES | Intestinal α-Glucosidase % Inhibition (IC50) [µg/mL]
COC(=O)c1c(C)cc(OC(=O)c2c(C)cc(O)c(C=O)c2O)c(C)c1O [compound 13, atranorin] | 2.07 ± 0.01
C[C@H]1O[C@H](O[C@H]2[C@H](O)[C@@H](O)[C@@H](O[C@H]3[C@H](O)[C@@H](O)C(O)O[C@@H]3CO)O[C@@H]2CO)[C@H](O)[C@@H](O)[C@@H]1N[C@H]1C=C(CO)[C@@H](O)[C@H](O)[C@H]1O (some centres unmarked) [acarbose, reference compound] | 2.58 ± 0.85
COc1c(C)c(O)cc(C)c1C(=O)O [compound 18, iso-rhizonic acid] | 1.99 ± 0.03
Cc1cc(O)c(C=O)c2c1C(=O)Oc1c(CO)c(O)c3c(c1O2)C(O)OC3=O (centres unmarked) [compound 11, salazinic acid] | 1.62 ± 0.07
CCCCCc1cc(O)cc2c1Oc1cc(O)cc(C(=O)CCCC)c1C(=O)O2 [compound 12, norlobaridone] | 1.41 ± 0.01
